How the values were obtained:
Test in all cases: Bacterial panel testing, MIC by broth microdilution
Type in all cases: cell-based
Conditions in all cases: 20-24 hours growth
[1] = tested on: Enterococcus faecium
Method: (§1) One to three colonies of bacteria were picked from an Mueller-Hinton or Brain Heart infusion agar plate (depending on the bacterial strain) and transferred to 3 ml Mueller-Hinton broth or Brain Heart infusion media (depending on the bacterial strain). Bacteria were allowed to grow for 2-4 hours in an incubator at 37° C. Bacteria-inoculated media were dispersed in 0.9% saline to match McFarland standard density. 100 μl standardized inoculation was added to 20 ml media (dilution 1). 10 μl of the new dilution was added to 990 μl media and mixed (dilution 2). 10 μl of dilution 2 was spread on an agar plate and allowed to grow overnight. Colonies were then […].
(§2) Test compound was diluted to 10 μg/ml in dimethylsulfoxide. Four μl of Rifampicin antibiotic was loaded into row H, column 2.
(§3) All wells were then filled with 100 μl of inoculated media (dilution 1 from Example 1). A further 100 μl of the inoculated media was then added to column 2 and the contents are pipetted to thoroughly mix the contents. A full 100 μl was then transferred from column 2 and mixed into column 3. This process was continued from left to right until columns 2-12 were serially diluted, and the final draw from column 12 was discarded. The plates were covered with 3M sealing tape (plates containing Enterococcus faecium were sealed with Air Pore sealing tape) and allowed to grow for 20-24 hours. Cytotoxic wells (clear wells) are then scored and the potency of the compound was determined.

[2] = tested on: Eschericia coli
Method: as §1, §2, §3

[3] = tested on: Pseudomonas aeruginosa
Method: as §1, §2, §3

[4] = tested on: Salmonella choleraesuis
Method: as §1, §2, §3

[5] = tested on: Staphylococcus aureus
Method: as §1, §2, §3

## C[C@H](N)C(=O)NC[C@H]1O[C@@H]2O[C@H]3[C@H](O)[C@@H](O)[C@@H](O[C@H]4[C@H](O)[C@@H](O)[C@@H](O[C@H]5[C@H](O)[C@@H](O)[C@@H](O[C@H]6[C@H](O)[C@@H](O)[C@@H](O[C@H]7[C@H](O)[C@@H](O)[C@@H](O[C@H]8[C@H](O)[C@@H](O)[C@@H](O[C@H]1[C@H](O)[C@H]2O)O[C@@H]8CNC(=O)[C@H](C)N)O[C@@H]7CNC(=O)[C@H](C)N)O[C@@H]6CNC(=O)[C@H](C)N)O[C@@H]5CNC(=O)[C@H](C)N)O[C@@H]4CNC(=O)[C@H](C)N)O[C@@H]3CNC(=O)[C@H](C)N.Cl.Cl.Cl.Cl.Cl.Cl.Cl
[1]
  MIC EF: >200 µg/mL
[2]
  MIC EC: >200 µg/mL
[3]
  MIC PA: >200 µg/mL
[4]
  MIC SC: >200 µg/mL
[5]
  MIC SA: >200 µg/mL

## Cl.Cl.Cl.Cl.Cl.Cl.Cl.N=C(N)NCCCSC[C@H]1O[C@@H]2O[C@H]3[C@H](O)[C@@H](O)[C@@H](O[C@H]4[C@H](O)[C@@H](O)[C@@H](O[C@H]5[C@H](O)[C@@H](O)[C@@H](O[C@H]6[C@H](O)[C@@H](O)[C@@H](O[C@H]7[C@H](O)[C@@H](O)[C@@H](O[C@H]8[C@H](O)[C@@H](O)[C@@H](O[C@H]1[C@H](O)[C@H]2O)O[C@@H]8CSCCCNC(=N)N)O[C@@H]7CSCCCNC(=N)N)O[C@@H]6CSCCCNC(=N)N)O[C@@H]5CSCCCNC(=N)N)O[C@@H]4CSCCCNC(=N)N)O[C@@H]3CSCCCNC(=N)N
[1]
  MIC EF: >200 µg/mL
[2]
  MIC EC: >200 µg/mL
[3]
  MIC PA: >200 µg/mL
[4]
  MIC SC: >200 µg/mL
[5]
  MIC SA: >200 µg/mL

## Cl.Cl.Cl.Cl.Cl.Cl.Cl.N[C@@H](CC(=O)OCc1ccccc1)C(=O)NC[C@H]1O[C@@H]2O[C@H]3[C@H](O)[C@@H](O)[C@@H](O[C@H]4[C@H](O)[C@@H](O)[C@@H](O[C@H]5[C@H](O)[C@@H](O)[C@@H](O[C@H]6[C@H](O)[C@@H](O)[C@@H](O[C@H]7[C@H](O)[C@@H](O)[C@@H](O[C@H]8[C@H](O)[C@@H](O)[C@@H](O[C@H]1[C@H](O)[C@H]2O)O[C@@H]8CNC(=O)[C@@H](N)CC(=O)OCc1ccccc1)O[C@@H]7CNC(=O)[C@@H](N)CC(=O)OCc1ccccc1)O[C@@H]6CNC(=O)[C@@H](N)CC(=O)OCc1ccccc1)O[C@@H]5CNC(=O)[C@@H](N)CC(=O)OCc1ccccc1)O[C@@H]4CNC(=O)[C@@H](N)CC(=O)OCc1ccccc1)O[C@@H]3CNC(=O)[C@@H](N)CC(=O)OCc1ccccc1
[1]
  MIC EF: >200 µg/mL
[2]
  MIC EC: >200 µg/mL
[3]
  MIC PA: >200 µg/mL
[4]
  MIC SC: >200 µg/mL
[5]
  MIC SA: >200 µg/mL

## Cl.Cl.Cl.Cl.Cl.Cl.Cl.NCCCCCSC[C@H]1O[C@@H]2O[C@H]3[C@H](O)[C@@H](O)[C@@H](O[C@H]4[C@H](O)[C@@H](O)[C@@H](O[C@H]5[C@H](O)[C@@H](O)[C@@H](O[C@H]6[C@H](O)[C@@H](O)[C@@H](O[C@H]7[C@H](O)[C@@H](O)[C@@H](O[C@H]8[C@H](O)[C@@H](O)[C@@H](O[C@H]1[C@H](O)[C@H]2O)O[C@@H]8CSCCCCCN)O[C@@H]7CSCCCCCN)O[C@@H]6CSCCCCCN)O[C@@H]5CSCCCCCN)O[C@@H]4CSCCCCCN)O[C@@H]3CSCCCCCN
[1]
  MIC EF: >200 µg/mL
[2]
  MIC EC: >200 µg/mL
[3]
  MIC PA: >200 µg/mL
[4]
  MIC SC: >200 µg/mL
[5]
  MIC SA: >200 µg/mL

## Cl.Cl.Cl.Cl.Cl.Cl.Cl.N[C@@H](Cc1ccc(O)cc1)C(=O)NC[C@H]1O[C@@H]2O[C@H]3[C@H](O)[C@@H](O)[C@@H](O[C@H]4[C@H](O)[C@@H](O)[C@@H](O[C@H]5[C@H](O)[C@@H](O)[C@@H](O[C@H]6[C@H](O)[C@@H](O)[C@@H](O[C@H]7[C@H](O)[C@@H](O)[C@@H](O[C@H]8[C@H](O)[C@@H](O)[C@@H](O[C@H]1[C@H](O)[C@H]2O)O[C@@H]8CNC(=O)[C@@H](N)Cc1ccc(O)cc1)O[C@@H]7CNC(=O)[C@@H](N)Cc1ccc(O)cc1)O[C@@H]6CNC(=O)[C@@H](N)Cc1ccc(O)cc1)O[C@@H]5CNC(=O)[C@@H](N)Cc1ccc(O)cc1)O[C@@H]4CNC(=O)[C@@H](N)Cc1ccc(O)cc1)O[C@@H]3CNC(=O)[C@@H](N)Cc1ccc(O)cc1
[1]
  MIC EF: >200 µg/mL
[2]
  MIC EC: >200 µg/mL
[3]
  MIC PA: >200 µg/mL
[4]
  MIC SC: >200 µg/mL
[5]
  MIC SA: >200 µg/mL

## Cl.Cl.Cl.Cl.Cl.Cl.Cl.NC(CCC(=O)OCc1ccccc1)C(=O)NCC1OC2OC3C(CNC(=O)C(N)CCC(=O)OCc4ccccc4)OC(OC4C(CNC(=O)C(N)CCC(=O)OCc5ccccc5)OC(OC5C(CNC(=O)C(N)CCC(=O)OCc6ccccc6)OC(OC6C(CNC(=O)C(N)CCC(=O)OCc7ccccc7)OC(OC7C(CNC(=O)C(N)CCC(=O)OCc8ccccc8)OC(OC8C(CNC(=O)C(N)CCC(=O)OCc9ccccc9)OC(OC1C(O)C2O)C(O)C8O)C(O)C7O)C(O)C6O)C(O)C5O)C(O)C4O)C(O)C3O (centres unmarked)
[1]
  MIC EF: >200 µg/mL
[2]
  MIC EC: >200 µg/mL
[3]
  MIC PA: >200 µg/mL
[4]
  MIC SC: >200 µg/mL
[5]
  MIC SA: >200 µg/mL

## Cl.Cl.Cl.Cl.Cl.Cl.Cl.NC(CS)C(=O)NCC1OC2OC3C(CNC(=O)C(N)CS)OC(OC4C(CNC(=O)C(N)CS)OC(OC5C(CNC(=O)C(N)CS)OC(OC6C(CNC(=O)C(N)CS)OC(OC7C(CNC(=O)C(N)CS)OC(OC8C(CNC(=O)C(N)CS)OC(OC1C(O)C2O)C(O)C8O)C(O)C7O)C(O)C6O)C(O)C5O)C(O)C4O)C(O)C3O (centres unmarked)
[1]
  MIC EF: >200 µg/mL
[2]
  MIC EC: >200 µg/mL
[3]
  MIC PA: >200 µg/mL
[4]
  MIC SC: >200 µg/mL
[5]
  MIC SA: >200 µg/mL

## CC(C)(C)OC(=O)NCCCC[C@H](NC(=O)[C@@H](N)CCCCNC(=O)OC(C)(C)C)C(=O)NCC1OC2OC3C(CNC(=O)[C@H](CCCCNC(=O)OC(C)(C)C)NC(=O)[C@@H](N)CCCCNC(=O)OC(C)(C)C)OC(OC4C(CNC(=O)[C@H](CCCCNC(=O)OC(C)(C)C)NC(=O)[C@@H](N)CCCCNC(=O)OC(C)(C)C)OC(OC5C(CNC(=O)[C@H](CCCCNC(=O)OC(C)(C)C)NC(=O)[C@@H](N)CCCCNC(=O)OC(C)(C)C)OC(OC6C(CNC(=O)[C@H](CCCCNC(=O)OC(C)(C)C)NC(=O)[C@@H](N)CCCCNC(=O)OC(C)(C)C)OC(OC7C(CNC(=O)[C@H](CCCCNC(=O)OC(C)(C)C)NC(=O)[C@@H](N)CCCCNC(=O)OC(C)(C)C)OC(OC8C(CNC(=O)[C@H](CCCCNC(=O)OC(C)(C)C)NC(=O)[C@@H](N)CCCCNC(=O)OC(C)(C)C)OC(OC1C(O)C2O)C(O)C8O)C(O)C7O)C(O)C6O)C(O)C5O)C(O)C4O)C(O)C3O (some centres unmarked)
[1]
  MIC EF: >200 µg/mL
[2]
  MIC EC: >200 µg/mL
[3]
  MIC PA: >200 µg/mL
[4]
  MIC SC: >200 µg/mL
[5]
  MIC SA: >200 µg/mL

## OC1C2OC(CNc3nc4ccccc4[nH]3)C(OC3OC(CNc4nc5ccccc5[nH]4)C(OC4OC(CNc5nc6ccccc6[nH]5)C(OC5OC(CNc6nc7ccccc7[nH]6)C(OC6OC(CNc7nc8ccccc8[nH]7)C(OC7OC(CNc8nc9ccccc9[nH]8)C(OC8OC(CNc9nc%10ccccc%10[nH]9)C(O2)C(O)C8O)C(O)C7O)C(O)C6O)C(O)C5O)C(O)C4O)C(O)C3O)C1O (centres unmarked)
[1]
  MIC EF: >200 µg/mL
[2]
  MIC EC: >200 µg/mL
[3]
  MIC PA: >200 µg/mL
[4]
  MIC SC: >200 µg/mL
[5]
  MIC SA: >200 µg/mL

## C=CCNCC1OC2OC3C(CNCC=C)OC(OC4C(CNCC=C)OC(OC5C(CNCC=C)OC(OC6C(CNCC=C)OC(OC7C(CNCC=C)OC(OC8C(CNCC=C)OC(OC1C(O)C2O)C(O)C8O)C(O)C7O)C(O)C6O)C(O)C5O)C(O)C4O)C(O)C3O (centres unmarked)
[1]
  MIC EF: >200 µg/mL
[2]
  MIC EC: >200 µg/mL
[3]
  MIC PA: >200 µg/mL
[4]
  MIC SC: >200 µg/mL
[5]
  MIC SA: >200 µg/mL

## Cl.Cl.Cl.Cl.Cl.Cl.Cl.N=C(N)NCCCCSCC1OC2OC3C(CSCCCCNC(=N)N)OC(OC4C(CSCCCCNC(=N)N)OC(OC5C(CSCCCCNC(=N)N)OC(OC6C(CSCCCCNC(=N)N)OC(OC7C(CSCCCCNC(=N)N)OC(OC8C(CSCCCCNC(=N)N)OC(OC1C(O)C2O)C(O)C8O)C(O)C7O)C(O)C6O)C(O)C5O)C(O)C4O)C(O)C3O (centres unmarked)
[1]
  MIC EF: >200 µg/mL
[2]
  MIC EC: >200 µg/mL
[3]
  MIC PA: >200 µg/mL
[4]
  MIC SC: >200 µg/mL
[5]
  MIC SA: >200 µg/mL

## CC(C)NCC1OC2OC3C(CNC(C)C)OC(OC4C(CNC(C)C)OC(OC5C(CNC(C)C)OC(OC6C(CNC(C)C)OC(OC7C(CNC(C)C)OC(OC8C(CNC(C)C)OC(OC1C(O)C2O)C(O)C8O)C(O)C7O)C(O)C6O)C(O)C5O)C(O)C4O)C(O)C3O (centres unmarked)
[1]
  MIC EF: >200 µg/mL
[2]
  MIC EC: >200 µg/mL
[3]
  MIC PA: >200 µg/mL
[4]
  MIC SC: >200 µg/mL
[5]
  MIC SA: >200 µg/mL

## CC(CCN)CCSCC1OC2OC3C(CSCCC(C)CCN)OC(OC4C(CSCCC(C)CCN)OC(OC5C(CSCCC(C)CCN)OC(OC6C(CSCCC(C)CCN)OC(OC7C(CSCCC(C)CCN)OC(OC8C(CSCCC(C)CCN)OC(OC1C(O)C2O)C(O)C8O)C(O)C7O)C(O)C6O)C(O)C5O)C(O)C4O)C(O)C3O.Cl.Cl.Cl.Cl.Cl.Cl.Cl (centres unmarked)
[1]
  MIC EF: >100 µg/mL
[2]
  MIC EC: >100 µg/mL
[3]
  MIC PA: >100 µg/mL
[4]
  MIC SC: >100 µg/mL
[5]
  MIC SA: >100 µg/mL

Reference: US20110071108A1, “Beta-Cyclodextrin Derivatives as Antibacterial Agents” (Pinnacle Pharmaceuticals, Inc., priority 2005, published 2011)
